1 molecule from US9434733B2, “PDE9 inhibitors with imidazo triazinone backbone” (H. Lundbeck A/S, priority 2012, dated 2016) can be followed below.

The target of this assay is PDE9 (Homo sapiens (Human), UniProt O76083). As to the kind of experiment: PDE9 inhibition assay. Type of assay: biochemical. The conditions noted are these: 10 nM 3H-cAMP, 1 hour incubation, yttrium silicate SPA beads; read-out: PDE9_IC50. The procedure:
Reactions are initiated by addition of the cyclic nucleotide substrate, and reactions are allowed to proceed for one hr at room temperature before being terminated through mixing with 15 uL 8 mg/mL yttrium silicate SPA beads (Amersham).
Following a 1 hour incubation the reactions were terminated by addition of 15 uL 8 mg/mL yttrium silicate SPA beads (Amersham). […] IC50 values were calculated by non linear regression using XLfit (IDBS).

PDE9, sequence (O76083 whole entry): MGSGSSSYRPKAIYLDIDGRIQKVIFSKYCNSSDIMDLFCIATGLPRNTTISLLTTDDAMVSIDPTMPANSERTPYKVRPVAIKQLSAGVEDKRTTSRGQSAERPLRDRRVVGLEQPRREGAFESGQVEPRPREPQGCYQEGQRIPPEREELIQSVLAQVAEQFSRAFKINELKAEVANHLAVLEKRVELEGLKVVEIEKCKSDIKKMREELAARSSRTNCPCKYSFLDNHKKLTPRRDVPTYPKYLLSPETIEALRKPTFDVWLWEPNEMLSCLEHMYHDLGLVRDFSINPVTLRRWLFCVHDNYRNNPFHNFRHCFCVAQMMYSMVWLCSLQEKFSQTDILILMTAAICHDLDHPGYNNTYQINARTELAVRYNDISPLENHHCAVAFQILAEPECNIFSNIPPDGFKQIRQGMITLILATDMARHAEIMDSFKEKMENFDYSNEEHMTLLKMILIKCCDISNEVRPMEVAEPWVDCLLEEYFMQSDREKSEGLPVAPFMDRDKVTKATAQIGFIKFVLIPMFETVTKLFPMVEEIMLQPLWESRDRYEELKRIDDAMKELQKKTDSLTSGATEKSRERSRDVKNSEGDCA

Consider `O=c1[nH]c(CN2CC(Oc3cccnc3)C2)nn2c(C3CCOCC3)ncc12` [2-[[3-(3-pyridyloxy)azetidin-1-yl]methyl]-7-tetrahydropyran-4-yl-3H-imidazo[5,1-f][1,2,4]triazin-4-one], for which the IC50 is 350 nM.
